# Molecular target: human Kv7.2 (Homo sapiens (Human), UniProt O43526)
# Assay: SyncroPatch 384 electrophysiology, activation of Kv7.2 in CHO cells
# Format: cell-based
# Conditions: Kv7.2 activation max %, relative to 30 μM ML-213 max activation
# Experimental: The potency of Kv7 uotentiators was determined using the SyncroPatch 384 (Nanion) high throughput electrophysiology platform.
# CHO cells stably expressing either human Kv7.2, Kv7.4 or Kv7.5/7.3 under a constitutive CMV promoter were used for these studies. Cells were maintained in F12 Hams+1 mM L-glutamine (Hyclone) supplemented with 10% FBS (Sigma), 0.3× NEAA (Non-essential Gamino-acids) and 400ug/ml G418 at 37° C. in 5% CO2. Cells were cultured in T-225 flasks (Nunc) for 2-3 days to reach 85-95% confluence prior to electrophysiological recording.
# Earle's balanced salt solution (in mM): 135 NaCl, 5.4 KCl, 5 Glucose, 2 CaCl2), 1 MgCl2, 5 HEPES, pH 7.4. Seal enhancer solution (in mM): 90 NaCl, 3 KCl, 35 CaCl2), 10 MgCl2, 10 HEPES, pH 7.4. Extracellular recording solution (in mM): 71 NaCl, 70 NMDG, 13 KCl, 5 Glucose, 2 CaCl2), 1 MgCl2, 10 HEPES, pH 7.4. Intracellular recording solution (in mM): 130 KF, 20 KCl, 4 EGTA, 10 HEPES, 2 EDTA, 0.01 Escin, pH 7.2.
# Cells were harvested for electrophysiological recording upon reaching appropriate confluence. Cells were first washed in DPBS (Hyclone, Cat #SH30028.03) and then 2 ml of Accutase (MP Biomedicals #1000449) was added at 28° C. until ˜90% of cells were suspended. F12 HAM's media+1 mM L-glutamine (Hyclone, SH30026.02) was then added to the flask to dilute the accutase. Cells were then triturated until a single cell suspension was achieved, a cell count was performed, and cells were centrifuged for 2 min. at 1,000 rpm. Media was then aspirated, and cells were resuspended in Earle's balanced salt solution to a concentration of 0.75×10^6 cells/ml and allowed to recover for 25 min at 10° C.
# At the beginning of each assay, 20 μl of cell suspension was dispensed into each well of a multi-hole 384-well SyncroPatch chip by the onboard pipettor. Cell sealing was initiated, and seal enhancer solution was added to facilitate seal formation. Upon completion of sealing, cells were washed 3 times with extracellular recording solution and the assay voltage protocol was started. Human Kv7.2, Kv7.4 or Kv7.5/7.3 channels were evaluated using a voltage protocol in which cells were voltage-clamped at a holding potential of −60 mV. Potassium currents were continuously activated with a series of three voltage steps to −30 mV for 3 seconds, 40 mV for 1 second and −90 mV for 4 seconds with 12 seconds between successive voltage sweeps. Potassium currents were measured from the −90 mV repolarizing step. Baseline current was assessed for 3.5 minutes prior to the addition of 5.6 μM zinc pyrithione (1μM for Kv7.4). Kv7.2, Kv7.4 or Kv7.5/7.3 current in the presence of zinc pyrithione was acquired over five minutes to allow channels to reach steady state activity prior to addition of test agents. Channel activity was monitored for three minutes preceding the addition of 30 μM ML-213 (3 minutes) to achieve maximum activation. 150 mM TEA with 10 μM XE-991 was applied for 2 minutes to measure the leak current during maximum inhibition of Kv7.2, Kv7.4 or Kv7.5/7.3 channels.
# Example 61 Data Analysis Data were collected on the SyncroPatch platform using PatchControl software (Nanion) and processed and analyzed using DataControl Software (Nanion). Percent activation was calculated from potassium current as follows: The average current for the 5 sweeps in the presence of zinc pyrithione immediately preceding test agent addition was taken as the ‘control’ data. Likewise, the average potassium current in the presence of test agents 5 sweeps immediately preceding addition of 30 μM ML-213 was determined for ‘drug’ data. The average potassium current 5 sweeps immediately prior to addition of 150 mM TEA+10 μM XE-991 was determined for ‘max activation’ data while average currents from 5 sweeps immediately following addition of TEA was determined for ‘max inhibition’ data. […]
row,Compound,Kv7.2 max [%]
1,"C[C@H](NC(=O)NC12CC(F)(C1)C2)c1cccc(OC(F)(F)F)c1 [Example 10, 1-(3-fluoro-1-bicyclo[1.1.1]pentanyl)-3-[(1S)-1-[3-(trifluoromethoxy)phenyl]ethyl]urea]",40
2,"O=C(N[C@@H](CO)c1cccc(Br)c1)NC12CC(C(F)(F)F)(C1)C2 [Example 12, 1-[(1R)-1-(3-bromophenyl)-2-hydroxyethyl]-3-[3-(trifluoromethyl)-1-bicyclo[1.1.1]pentanyl]urea]",69
3,"O=C(NCc1cccc(F)c1)NC12CC(F)(C1)C2 [Example 19, 1-(3-fluoro-1-bicyclo[1.1.1]pentanyl)-3-[(3-fluorophenyl)methyl]urea]",49
4,"O=C(NCc1cccc(C=C(F)F)c1)NC12CC(F)(C1)C2 [Example 45, 1-[[3-(2,2-difluoroethenyl)phenyl]methyl]-3-(3-fluoro-1-bicyclo[1.1.1]pentanyl)urea]",71
5,"O=C(N[C@@H](CO)c1cccc(Cl)c1)NC12CC(C(F)(F)F)(C1)C2 [Example 3, 1-[(1R)-1-(3-chlorophenyl)-2-hydroxyethyl]-3-[3-(trifluoromethyl)-1-bicyclo[1.1.1]pentanyl]urea]",48
6,"CC(NC(=O)NC12CC(F)(C1)C2)c1cccc(OC(F)F)c1 (stereo not shown) [Example 38, 1-[1-[3-(difluoromethoxy)phenyl]ethyl]-3-(3-fluoro-1-bicyclo[1.1.1]pentanyl)urea]",40
7,"N#Cc1cccc(CNC(=O)NC23CC(C(F)F)(C2)C3)c1 [Example 15, 1-[(3-cyanophenyl)methyl]-3-[3-(difluoromethyl)-1-bicyclo[1.1.1]pentanyl]urea]",58
8,"C[C@H](NC(=O)NC12CC(C)(C1)C2)c1cccc(OC(F)(F)F)c1 [Example 26, 1-(3-methyl-1-bicyclo[1.1.1]pentanyl)-3-[(1S)-1-[3-(trifluoromethoxy)phenyl]ethyl]urea]",58
9,"O=C(NCc1cccc(SC(F)(F)F)c1)NC12CC(F)(C1)C2 [Example 50, 1-(3-fluoro-1-bicyclo[1.1.1]pentanyl)-3-[[3-(trifluoromethylsulfanyl)phenyl]methyl]urea]",72
10,"O=C(NCc1cccc(C(F)(F)F)c1)NC12CC(F)(C1)C2 [Example 11, 1-(3-fluoro-1-bicyclo[1.1.1]pentanyl)-3-[[3-(trifluoromethyl)phenyl]methyl]urea]",80
11,"C[C@H](NC(=O)NC12CC(C1)C2)c1cccc(C(F)(F)F)c1 [Example 51, 1-(1-bicyclo[1.1.1]pentanyl)-3-[(1S)-1-[3-(trifluoromethyl)phenyl]ethyl]urea]",52
12,"CC(C)C12CC(NC(=O)N[C@@H](C)c3cccc(OC(F)(F)F)c3)(C1)C2 [Example 27, 1-(3-propan-2-yl-1-bicyclo[1.1.1]pentanyl)-3-[(1S)-1-[3-(trifluoromethoxy)phenyl]ethyl]urea]",40
13,"C[C@H](NC(=O)NC12CC(F)(C1)C2)c1cccc(C(F)(F)F)c1 [Example 9, 1-(3-fluoro-1-bicyclo[1.1.1]pentanyl)-3-[(1S)-1-[3-(trifluoromethyl)phenyl]ethyl]urea]",51
14,"N#Cc1cccc(CNC(=O)NC23CC(F)(C2)C3)c1 [Example 13, 1-[(3-cyanophenyl)methyl]-3-(3-fluoro-1-bicyclo[1.1.1]pentanyl)urea]",48
15,"O=C(NCc1cccc(C2COC2)c1)NC12CC(C(F)(F)F)(C1)C2 [Example 30, 1-[[3-(oxetan-3-yl)phenyl]methyl]-3-[3-(trifluoromethyl)-1-bicyclo[1.1.1]pentanyl]urea]",65
16,"O=C(NCc1cccc(OCF)c1)NC12CC(C(F)(F)F)(C1)C2 [Example 34, 1-[[3-(fluoromethoxy)phenyl]methyl]-3-[3-(trifluoromethyl)-1-bicyclo[1.1.1]pentanyl]urea]",56
17,"CC12CC(NC(=O)NCc3cccc(C(F)(F)F)c3)(C1)C2 [Example 20, 1-(3-methyl-1-bicyclo[1.1.1]pentanyl)-3-[[3-(trifluoromethyl)phenyl]methyl]urea]",77
18,"O=C(N[C@H](CO)c1cccc(Br)c1)NC12CC(C(F)(F)F)(C1)C2 [Example 44, 1-[(1S)-1-(3-bromophenyl)-2-hydroxyethyl]-3-[3-(trifluoromethyl)-1-bicyclo[1.1.1]pentanyl]urea]",40
19,"O=C(NCc1cccc(OCC(F)(F)F)c1)NC12CC(C(F)(F)F)(C1)C2 [Example 58, 1-[[3-(2,2,2-trifluoroethoxy)phenyl]methyl]-3-[3-(trifluoromethyl)-1-bicyclo[1.1.1]pentanyl]urea]",67
20,"C[C@H](NC(=O)NC12CC(F)(C1)C2)c1cccc(Cl)c1 [Example 18, 1-[(1S)-1-(3-chlorophenyl)ethyl]-3-(3-fluoro-1-bicyclo[1.1.1]pentanyl)urea]",47
21,"C[C@H](NC(=O)NC12CC(F)(C1)C2)c1cccc(Br)c1 [Example 16, 1-[(1S)-1-(3-bromophenyl)ethyl]-3-(3-fluoro-1-bicyclo[1.1.1]pentanyl)urea]",40
22,"COc1cccc([C@H](C)NC(=O)NC23CC(F)(C2)C3)c1 [Example 8, 1-(3-fluoro-1-bicyclo[1.1.1]pentanyl)-3-[(1S)-1-(3-methoxyphenyl)ethyl]urea]",57
23,"O=C(N[C@@H](CO)c1cccc(C(F)(F)F)c1)NC12CC(C(F)(F)F)(C1)C2 [Example 48, 1-[(1R)-2-hydroxy-1-[3-(trifluoromethyl)phenyl]ethyl]-3-[3-(trifluoromethyl)-1-bicyclo[1.1.1]pentanyl]urea]",78
24,"O=C(NCc1cccc(OC(F)(F)F)c1)NC12CC(F)(C1)C2 [Example 6, 1-(3-fluoro-1-bicyclo[1.1.1]pentanyl)-3-[[3-(trifluoromethoxy)phenyl]methyl]urea]",76
25,"C[C@H](NC(=O)NC12CC(F)(C1)C2)c1cccc(F)c1 [Example 24, 1-(3-fluoro-1-bicyclo[1.1.1]pentanyl)-3-[(1S)-1-(3-fluorophenyl)ethyl]urea]",51
26,"N#Cc1cccc(CNC(=O)NC23CC(C(F)(F)F)(C2)C3)c1F [Example 47, 1-[(3-cyano-2-fluorophenyl)methyl]-3-[3-(trifluoromethyl)-1-bicyclo[1.1.1]pentanyl]urea]",40
27,"C#Cc1cccc(CNC(=O)NC23CC(C(F)(F)F)(C2)C3)c1 [Example 32, 1-[(3-ethynylphenyl)methyl]-3-[3-(trifluoromethyl)-1-bicyclo[1.1.1]pentanyl]urea]",54
28,"O=C(NCc1cccc(C(F)(F)F)c1)NC12CC(C1)C2 [Example 23, 1-(1-bicyclo[1.1.1]pentanyl)-3-[[3-(trifluoromethyl)phenyl]methyl]urea]",79
